Tested on: panel of breast cancer cell lines
Test: Compound A with targeted agents and chemotherapies, 72-hour in vitro proliferation assays
Type: cell-based
Details: 72-hour proliferation
[1] = AU565 cell line, compound A × partner
[2] = BT-20 cell line, compound A × partner
[3] = BT-474 cell line, compound A × partner
[4] = BT-549 cell line, compound A × partner
[5] = CAL-51 cell line, compound A × partner
[6] = CAL-85-1 cell line, compound A × partner
[7] = CAL-120 cell line, compound A × partner
[8] = CAL-148 cell line, compound A × partner
[9] = CAMA-1 cell line, compound A × partner
[10] = DU-4475 cell line, compound A × partner
[11] = EVSA-T cell line, compound A × partner
[12] = MCF7 cells, Compound A × partner agent
[13] = MDA-MB-175-VII cells, Compound A × partner agent
[14] = MDA-MB-231 cells, Compound A × partner agent
[15] = MDA-MB-361 cells, Compound A × partner agent
[16] = MDA-MB-436 cells, Compound A × partner agent
[17] = MDA-MB-453 cells, Compound A × partner agent
[18] = MDA-MB-468 cells, Compound A × partner agent
[19] = SK-BR-3 cells, Compound A × partner agent
[20] = SUM159PT cells, combination of compound A with the named agent
[21] = T47D cells, combination of compound A with the named agent
[22] = ZR-75-1 cells, combination of compound A with the named agent
[23] = ZR-75-30 cells, combination of compound A with the named agent

C[C@]12CC[C@@H]3c4ccc(O)cc4C[C@@H](CCCCCCCCC[S+]([O-])CCCC(F)(F)C(F)(F)F)[C@H]3[C@@H]1CC[C@@H]2O (stereo partly drawn) [Fulvestrant]
Bliss Volume [1]: 6.82
HSA volume [1]: 2.40
Loewe Volume [1]: 4.57
Synergy Score [1]: 3.43
Bliss Volume [2]: 3.55
HSA volume [2]: 3.62
Loewe Volume [2]: 3.44
Synergy Score [2]: 8.19
Bliss Volume [3]: 2.68
HSA volume [3]: 1.47
Loewe Volume [3]: 1.42
Synergy Score [3]: 6.48
Bliss Volume [4]: 3.56
HSA volume [4]: 7.74
Loewe Volume [4]: 7.73
Synergy Score [4]: 6.08
Bliss Volume [5]: 0.71
HSA volume [5]: −1.89
Loewe Volume [5]: 0.82
Synergy Score [5]: 0.47
Bliss Volume [6]: −4.57
HSA volume [6]: −0.20
Loewe Volume [6]: −0.68
Synergy Score [6]: 2.63
Bliss Volume [7]: −4.96
HSA volume [7]: −4.48
Loewe Volume [7]: −4.09
Synergy Score [7]: 0.28
Bliss Volume [8]: −1.80
HSA volume [8]: −2.13
Loewe Volume [8]: −0.78
Synergy Score [8]: 4.58
Bliss Volume [9]: 4.38
HSA volume [9]: −0.63
Loewe Volume [9]: −0.83
Synergy Score [9]: 2.09
Bliss Volume [10]: 4.93
HSA volume [10]: 0.13
Loewe Volume [10]: 4.51
Synergy Score [10]: 2.58
Bliss Volume [11]: 6.75
HSA volume [11]: 1.08
Loewe Volume [11]: 1.59
Synergy Score [11]: 3.72
Bliss Volume (HCC38, compound A × partner): −3.19
HSA volume (HCC38, compound A × partner): −1.37
Loewe Volume (HCC38, compound A × partner): −1.82
Synergy Score (HCC38, compound A × partner): 2.63
Bliss Volume (HCC70, compound A × partner): 10.34
HSA volume (HCC70, compound A × partner): 9.70
Loewe Volume (HCC70, compound A × partner): 10.67
Synergy Score (HCC70, compound A × partner): 17.18
Bliss Volume (HCC1143, compound A × partner): 0.82
HSA volume (HCC1143, compound A × partner): −4.16
Loewe Volume (HCC1143, compound A × partner): 0.02
Synergy Score (HCC1143, compound A × partner): 2.79
Bliss Volume (HCC1569, compound A × partner): 3.84
HSA volume (HCC1569, compound A × partner): 4.70
Loewe Volume (HCC1569, compound A × partner): 5.59
Synergy Score (HCC1569, compound A × partner): 5.92
Bliss Volume (HCC1806, compound A × partner): −0.20
HSA volume (HCC1806, compound A × partner): −0.86
Loewe Volume (HCC1806, compound A × partner): 1.90
Synergy Score (HCC1806, compound A × partner): 2.60
Bliss Volume (HCC1937, compound A × partner): 2.31
HSA volume (HCC1937, compound A × partner): −0.65
Loewe Volume (HCC1937, compound A × partner): 2.38
Synergy Score (HCC1937, compound A × partner): 2.38
Bliss Volume (HCC1954, compound A × partner): 11.35
HSA volume (HCC1954, compound A × partner): 12.18
Loewe Volume (HCC1954, compound A × partner): 11.84
Synergy Score (HCC1954, compound A × partner): 16.73
Bliss Volume (HCC2218, compound A × partner): 1.16
HSA volume (HCC2218, compound A × partner): 1.89
Loewe Volume (HCC2218, compound A × partner): −1.02
Synergy Score (HCC2218, compound A × partner): 3.85
Bliss Volume (HDQ-P1, compound A × partner): −5.92
HSA volume (HDQ-P1, compound A × partner): −6.15
Loewe Volume (HDQ-P1, compound A × partner): −5.56
Synergy Score (HDQ-P1, compound A × partner): 0.42
Bliss Volume (HMC-1-8, compound A × partner): 10.58
HSA volume (HMC-1-8, compound A × partner): 7.21
Loewe Volume (HMC-1-8, compound A × partner): 7.81
Synergy Score (HMC-1-8, compound A × partner): 13.30
Bliss Volume (JIMT-1, compound A × partner): 5.80
HSA volume (JIMT-1, compound A × partner): 0.54
Loewe Volume (JIMT-1, compound A × partner): 4.52
Synergy Score (JIMT-1, compound A × partner): 1.26
Bliss Volume (KPL-1, compound A × partner): 0.30
HSA volume (KPL-1, compound A × partner): 1.12
Loewe Volume (KPL-1, compound A × partner): 1.04
Synergy Score (KPL-1, compound A × partner): 2.75
Bliss Volume [12]: 11.46
HSA volume [12]: 11.54
Loewe Volume [12]: 11.41
Bliss Volume [13]: 11.56
HSA volume [13]: 1.65
Loewe Volume [13]: 10.58
Synergy Score [13]: 7.62
Bliss Volume [14]: 1.26
HSA volume [14]: −0.76
Loewe Volume [14]: 1.50
Synergy Score [14]: 1.17
Bliss Volume [15]: −3.29
HSA volume [15]: −1.23
Loewe Volume [15]: −0.47
Synergy Score [15]: 3.34
Bliss Volume [16]: 1.52
HSA volume [16]: 2.87
Loewe Volume [16]: 2.94
Synergy Score [16]: 3.30
Bliss Volume [17]: −0.77
HSA volume [17]: −3.96
Loewe Volume [17]: −1.85
Synergy Score [17]: 4.79
Bliss Volume [18]: 6.94
HSA volume [18]: 6.17
Loewe Volume [18]: 7.22
Bliss Volume [19]: −2.14
HSA volume [19]: −3.78
Loewe Volume [19]: −2.67
Synergy Score [19]: 2.05
Bliss Volume [20]: 2.51
HSA volume [20]: 0.14
Loewe Volume [20]: 2.16
Synergy Score [20]: 1.23
Bliss Volume [21]: 0.17
HSA volume [21]: 2.12
Loewe Volume [21]: 3.30
Synergy Score [21]: 4.16
Bliss Volume [22]: 5.80
HSA volume [22]: 4.00
Loewe Volume [22]: 6.17
Synergy Score [22]: 4.22
Bliss Volume [23]: 1.91
HSA volume [23]: 1.18
Loewe Volume [23]: 1.80
Synergy Score [23]: 4.50
